# Reference: PMC9407656 (Proceedings of the National Academy of Sciences of the …, 2022)
# Where “and” joins values, the source holds several entries; their conditions need not be identical. Equal values may be shown once. Read-outs that look alike come from different tables or passages of the source.
# How the values were obtained:
# B. malayi AVR-14B GluCl = biological target: T1, B. malayi AVR-14B GluCl (Brugia malayi, UniProt A0A0K0J2Q9); test: Two-electrode voltage-clamp on Xenopus laevis oocytes expressing Bma-AVR-14B; conditions: for agonist activity (in words): tested at 1 mM; for activation at 1000 µM / activation at 10000 µM / L-glutamate-mediated current response (mean ± SEM): normalized to 10 mM L-glutamate; for direct activation as agonist (in words): 0.3 to 100 µM
# T1 sequence (A0A0K0J2Q9 19-427): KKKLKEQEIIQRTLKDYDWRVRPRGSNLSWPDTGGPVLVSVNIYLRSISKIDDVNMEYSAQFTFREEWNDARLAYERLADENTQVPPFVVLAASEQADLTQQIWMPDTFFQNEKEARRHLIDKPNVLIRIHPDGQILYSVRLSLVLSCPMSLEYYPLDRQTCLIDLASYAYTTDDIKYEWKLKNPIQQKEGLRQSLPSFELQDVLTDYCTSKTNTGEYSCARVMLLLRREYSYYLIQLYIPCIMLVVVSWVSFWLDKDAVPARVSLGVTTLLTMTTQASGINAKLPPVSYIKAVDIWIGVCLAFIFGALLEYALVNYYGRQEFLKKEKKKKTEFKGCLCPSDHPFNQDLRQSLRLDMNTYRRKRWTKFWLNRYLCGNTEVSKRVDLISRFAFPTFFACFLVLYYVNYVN
# [1] = system: C. elegans AVR-14B/GluClα3B; conditions: cited from earlier work
# [2] = system: D. immitis AVR-14B/GluClα3B; conditions: cited from earlier work
# [3] = system: C. oncophora IVS AVR-14/GluClα3; conditions: IVM-sensitive strain; SI table ref 5; cited from earlier work
# [4] = system: C. oncophora IVR AVR-14/GluClα3; conditions: IVM-resistant strain; SI table ref 5; cited from earlier work
# [5] = system: H. contortus AVR-14B/GluClα3B; conditions: SI table ref 3, cited from earlier work
# B. malayi = conditions: cited from earlier work; for gradual recovery from the paralytic effects: treated worms
# adult B. malayi worms = test: Adult B. malayi worm motility; format: cell-based, Brugia malayi; conditions: for pIC50, inhibition of motility / IC50: 24 h exposure; for IC50: read-out: IC50, inhibition of motility; for recovery from the motility paralysis: treated adult worms
# [6] = peak current normalized to 30 mM L-glutamate
# [7] = read-out: IC50(female), motility, female B. malayi
# [8] = coapplied with 30 mM L-glutamate
compound,measurement,setting,value
"NCC(=O)O [Glycine, glycine]",agonist activity (in words),B. malayi AVR-14B GluCl,inactive
N[C@@H](Cn1oc(=O)[nH]c1=O)C(=O)O [quisqualate],agonist activity (in words),B. malayi AVR-14B GluCl,failed to induce any measurable channel activity
N[C@@H](CCC(=O)O)C(=O)O [L-glutamate],EC50,[1],2200 µM
same,EC50,[2],~1000 µM
same,EC50,[3],29.7 µM
same,EC50,[4],96.1 µM
same,EC50,[5],27.6 µM
same,time constant of desensitization (τ),B. malayi AVR-14B GluCl; 3 µM L-glutamate,1.3 ± 0.3 s
same,reversal potential (Erev) of glutamate-gated currents,"B. malayi AVR-14B GluCl; 1 mM L-glutamate, −80 to +20 mV",−28.9 ± 2.9 mV
same,time constant of desensitization (τ),B. malayi AVR-14B GluCl; 30 mM L-glutamate,0.6 ± 0.1 s
same,"nH (Hill coefficient), direct activation",B. malayi AVR-14B GluCl; [6],0.8 ± 0.3
same,activation at 1000 µM,"B. malayi AVR-14B GluCl; read-out: L-glutamate-mediated current response (mean ± SEM), 1 mM L-glutamate alone, 0.01 nM IVM experiment",54.3 ± 9.2%
same,activation at 1000 µM,"B. malayi AVR-14B GluCl; read-out: L-glutamate-mediated current response (mean ± SEM), 1 mM L-glutamate alone, 0.1 nM IVM experiment",52.8 ± 3.3%
same,activation at 10000 µM,"B. malayi AVR-14B GluCl; read-out: L-glutamate-mediated current response (mean ± SEM), 10 mM L-glutamate alone, 0.01 nM IVM experiment",100%
same,activation at 10000 µM,"B. malayi AVR-14B GluCl; read-out: L-glutamate-mediated current response (mean ± SEM), 10 mM L-glutamate alone, 0.1 nM IVM experiment",100%
"NCCCC(=O)O [GABA, γ-amino butyric acid]",agonist activity (in words),B. malayi AVR-14B GluCl,inactive
"CCN(CC)C(=O)N1CCN(C)CC1 [DEC, diethylcarbamazine]",IC50,"B. malayi; read-out: IC50, motility, B. malayi",4.4 µM
same,gradual recovery from the paralytic effects,B. malayi,3 to 4 h
c1ccc([C@H]2CN3CCSC3=N2)cc1 [levamisole],IC50,B. malayi; [7],0.01 µM
same,gradual recovery from the paralytic effects,B. malayi,3 to 4 h
C=C(C)[C@H]1CN[C@H](C(=O)O)[C@H]1CC(=O)O [kainate],agonist activity (in words),B. malayi AVR-14B GluCl,failed to induce any measurable channel activity
CC(C)C[C@H]1C(=O)O[C@H](Cc2ccc(N3CCOCC3)cc2)C(=O)N(C)[C@@H](CC(C)C)C(=O)O[C@H](C)C(=O)N(C)[C@@H](CC(C)C)C(=O)O[C@H](Cc2ccc(N3CCOCC3)cc2)C(=O)N(C)[C@@H](CC(C)C)C(=O)O[C@H](C)C(=O)N1C [emodepside],IC50,B. malayi; [7],0.801 µM
same,IC50,"B. malayi; read-out: IC50(male), motility, male B. malayi",0.176 µM
"CC[C@H](C)[C@H]1O[C@]2(CC[C@@H]1C)C[C@@H]1C[C@@H](C/C=C(\C)[C@@H](O[C@H]3C[C@H](OC)[C@@H](O[C@H]4C[C@H](OC)[C@@H](O)[C@H](C)O4)[C@H](C)O3)[C@@H](C)/C=C/C=C3\CO[C@@H]4[C@H](O)C(C)=C[C@@H](C(=O)O1)[C@]34O)O2 [IVM, ivermectin]","pIC50, inhibition of motility",adult B. malayi worms; adult female worms,5.9 ± 0.4
same,"pIC50, inhibition of motility",adult B. malayi worms; adult male worms,4.9 ± 0.2
same,IC50,adult B. malayi worms; adult female worms,1.1 µM
same,IC50,adult B. malayi worms; adult male worms,11.6 µM
same,recovery from the motility paralysis,adult B. malayi worms,do not show any sign of recovery
same,EC50,[3],0.5 µM
same,EC50,[4],1.3 µM
same,EC50,[5]; read-out: estimated EC50,~0.0001 µM
same,direct activation of receptor (in words),B. malayi AVR-14B GluCl; 1 pM IVM,did not activate the Bma-AVR-14B receptor directly
same,effect on NA-mediated effects (in words),"B. malayi AVR-14B GluCl; 0.1 nM IVM, NA with 30 µM L-glutamate",eliminated the agonist as well as PAM effects of NA
same,L-glutamate-mediated current response (mean ± SEM),B. malayi AVR-14B GluCl; 100 µM L-glutamate in the presence of 0.1 nM IVM,1.3 ± 0.3%
same,L-glutamate-mediated current response (mean ± SEM),B. malayi AVR-14B GluCl; 1 mM L-glutamate in the presence of 0.01 nM IVM,34.2 ± 7.5%
same,L-glutamate-mediated current response (mean ± SEM),B. malayi AVR-14B GluCl; 1 mM L-glutamate in the presence of 0.1 nM IVM,4.0 ± 0.6%
same,L-glutamate-mediated current response (mean ± SEM),B. malayi AVR-14B GluCl; 10 mM L-glutamate in the presence of 0.01 nM IVM,70.3 ± 7.9%
same,L-glutamate-mediated current response (mean ± SEM),B. malayi AVR-14B GluCl; 10 mM L-glutamate in the presence of 0.1 nM IVM,7.7 ± 0.7%
same,"nH (Hill coefficient), direct activation",B. malayi AVR-14B GluCl; [6],0.3 ± 0.1 and 0.3 ± 0.2
same,"pEC50, direct activation",B. malayi AVR-14B GluCl; [6],8.7 ± 1.2
"Cc1onc(O)c1CC(N)C(=O)O (stereo not drawn) [AMPA, α-amino-3-hydroxy-5-methyl-4-isoxazolepropionic acid]",agonist activity (in words),B. malayi AVR-14B GluCl,failed to induce any measurable channel activity
picrotoxin [PTX],inhibition of the glutamate response,"B. malayi AVR-14B GluCl; 100 µM, 30 mM L-glutamate",failed to completely block
same,direct activation as agonist (in words),B. malayi AVR-14B GluCl,failed to produce direct activation
same,"nH, inhibition of L-glutamate-gated current",B. malayi AVR-14B GluCl; [8],−1.2 ± 0.6
same,"pIC50, inhibition of L-glutamate-gated current",B. malayi AVR-14B GluCl; [8],4.5 ± 0.2
same,IC50,"B. malayi AVR-14B GluCl; read-out: IC50, inhibition of L-glutamate-gated current, coapplied with 30 mM L-glutamate",33.1 µM
N[C@@H](CC(=O)O)C(=O)O [L-aspartate],agonist activity (in words),B. malayi AVR-14B GluCl,failed to induce any measurable channel activity
"N#Cc1nn(-c2c(Cl)cc(C(F)(F)F)cc2Cl)c(N)c1[S+]([O-])C(F)(F)F (stereo not shown) [FIP, fipronil]",direct activation as agonist (in words),B. malayi AVR-14B GluCl,failed to produce direct activation
same,IC50,"B. malayi AVR-14B GluCl; IC50, inhibition of L-glutamate-gated current, coapplied with 30 mM L-glutamate",1.8 µM
same,"nH, inhibition of L-glutamate-gated current",B. malayi AVR-14B GluCl; [8],−1.3 ± 0.4
same,IC50,"B. malayi AVR-14B GluCl; pIC50, inhibition of L-glutamate-gated current, coapplied with 30 mM L-glutamate",2 µM
same,inhibition at 100 µM,B. malayi AVR-14B GluCl; read-out: inhibition of the glutamate response,~95%
"CN[C@H](CC(=O)O)C(=O)O [NMDA, N-methyl-D-aspartic acid]",agonist activity (in words),B. malayi AVR-14B GluCl,failed to induce any measurable channel activity
N[C@H](C(=O)O)c1cc(O)no1 [ibotenate],normalized current response to agonist (mean ± SEM),"B. malayi AVR-14B GluCl; agonist 1 mM, normalized to 1 mM L-glutamate response",73.4 ± 2.5%
"C/C(=C\C=C\[C@]1(C)[C@@H](O)CC[C@@]2(C)[C@H]1CC[C@H]1Cc3c([nH]c4cc5c(cc34)C3=CC(C)(C)OC(C)(C)[C@H]3C5)[C@@]12C)C(=O)O [NA, Nodulisporic acid]",exposure required to produce a reduction in worm motility similar to IVM,adult B. malayi worms; adult worms,> 3 days
same,recovery from the motility paralysis,adult B. malayi worms,do not show any sign of recovery
same,EC50,"B. malayi AVR-14B GluCl; EC50, direct activation (agonist), normalized to 30 mM L-glutamate",2.7 µM
same,"nH, potentiation (PAM) of L-glutamate response",B. malayi AVR-14B GluCl; in the presence of 30 µM L-glutamate,0.8 ± 0.4
same,increase in the mean AUC response of L-glutamate,B. malayi AVR-14B GluCl; in the presence of NA,approximately sevenfold increase
same,EC50,"B. malayi AVR-14B GluCl; pEC50, direct activation, peak current normalized to 30 mM L-glutamate",2.51 µM
same,"nH (Hill coefficient), direct activation",B. malayi AVR-14B GluCl; [6],1.6 ± 0.8
